The target in data set [1] is T1, Solute carrier organic anion transporter family member 1B3 (Homo sapiens, UniProt Q9NPD5).
T1 sequence (Q9NPD5 whole entry): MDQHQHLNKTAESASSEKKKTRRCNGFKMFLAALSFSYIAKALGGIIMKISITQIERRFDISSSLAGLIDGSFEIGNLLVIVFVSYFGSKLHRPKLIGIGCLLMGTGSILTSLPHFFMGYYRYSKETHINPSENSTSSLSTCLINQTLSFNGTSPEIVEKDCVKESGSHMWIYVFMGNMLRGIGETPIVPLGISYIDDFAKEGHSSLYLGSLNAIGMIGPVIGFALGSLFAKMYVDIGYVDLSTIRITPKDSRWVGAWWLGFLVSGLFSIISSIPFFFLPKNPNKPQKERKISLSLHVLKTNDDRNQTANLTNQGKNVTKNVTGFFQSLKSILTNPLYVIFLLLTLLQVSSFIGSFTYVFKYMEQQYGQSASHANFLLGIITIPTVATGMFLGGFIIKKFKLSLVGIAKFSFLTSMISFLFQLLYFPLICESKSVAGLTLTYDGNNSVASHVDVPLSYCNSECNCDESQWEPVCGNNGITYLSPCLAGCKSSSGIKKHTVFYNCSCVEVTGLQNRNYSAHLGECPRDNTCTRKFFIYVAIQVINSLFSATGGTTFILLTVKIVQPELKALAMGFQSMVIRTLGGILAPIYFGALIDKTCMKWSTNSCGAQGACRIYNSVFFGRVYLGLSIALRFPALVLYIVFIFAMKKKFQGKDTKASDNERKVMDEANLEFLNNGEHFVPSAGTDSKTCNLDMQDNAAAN
The experiment in a line: TP_TRANSPORTER: inhibition of MTX uptake (MTX: 1 uM, BSP: 100 uM) in Xenopus laevis oocytes. The note with it: oocyte. The format is functional, cell-based.

Data set [2] addresses T1, Solute carrier organic anion transporter family member 1B3. The experiment in a line: (§1) TP_TRANSPORTER: uptake in Xenopus laevis oocytes. The format is functional, cell-based, Oocyte. The note with it: for Activity: oocyte; for Km: Xenopus laevis oocytes expressing SLCO1B3 (OATP1B3).
Data set [3] addresses T2, Solute carrier organic anion transporter family member 1B1 (Homo sapiens, UniProt Q9Y6L6).
T2 sequence (Q9Y6L6 whole entry): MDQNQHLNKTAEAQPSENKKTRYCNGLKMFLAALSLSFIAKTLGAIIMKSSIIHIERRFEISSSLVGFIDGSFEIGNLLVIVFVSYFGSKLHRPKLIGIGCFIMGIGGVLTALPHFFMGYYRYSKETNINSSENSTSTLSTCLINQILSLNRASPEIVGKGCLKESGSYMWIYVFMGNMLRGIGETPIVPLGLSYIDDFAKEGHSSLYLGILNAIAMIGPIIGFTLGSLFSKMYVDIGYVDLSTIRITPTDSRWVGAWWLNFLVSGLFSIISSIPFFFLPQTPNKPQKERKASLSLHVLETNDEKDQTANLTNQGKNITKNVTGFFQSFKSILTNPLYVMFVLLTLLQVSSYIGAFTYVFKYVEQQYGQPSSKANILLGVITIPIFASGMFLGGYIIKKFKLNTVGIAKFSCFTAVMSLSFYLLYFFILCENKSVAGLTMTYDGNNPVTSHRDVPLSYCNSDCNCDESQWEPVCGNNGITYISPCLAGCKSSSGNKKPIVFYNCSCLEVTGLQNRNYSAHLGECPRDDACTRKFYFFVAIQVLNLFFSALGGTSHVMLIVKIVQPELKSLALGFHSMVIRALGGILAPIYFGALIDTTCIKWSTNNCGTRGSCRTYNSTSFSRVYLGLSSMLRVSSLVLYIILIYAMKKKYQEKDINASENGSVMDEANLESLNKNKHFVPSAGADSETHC
The data set is described as §1. It counts as functional, cell-based. The note with it: oocyte.

Turning to `O=C1OC(c2ccc(O)c(S(=O)(=O)[O-])c2)(c2ccc(O)c(S(=O)(=O)[O-])c2)c2c(Br)c(Br)c(Br)c(Br)c21.[Na+].[Na+]` [SULFOBROMOPHTHALEIN SODIUM], the Activity entry in data set [1] was “inhibitor [+]”.

Turning to `C[C@]12CC[C@H](OS(=O)(=O)O)CC1=CC[C@@H]1[C@@H]2CC[C@]2(C)C(=O)CC[C@@H]12` [PRASTERONE SULFURIC ACID], in data set [2], the Activity result is “substrate [+]”.

For `N[C@@H](Cc1cc(I)c(Oc2ccc(O)c(I)c2)c(I)c1)C(=O)O` [LIOTHYRONINE], the Km in data set [2] worked out at 6.4 µM.

For the molecule `CC1(C)SSC(C)(C)[C@@H](NC(=O)[C@@H](N)Cc2ccc(O)cc2)C(=O)NCC(=O)N[C@@H](Cc2ccccc2)C(=O)N[C@H]1C(=O)O`, in data set [2], the Activity entry is “is not a substrate [-]”.

As for `CN(Cc1cnc2nc(N)nc(N)c2n1)c1ccc(C(=O)N[C@@H](CCC(=O)O)C(=O)O)cc1` [METHOTREXATE], the Activity result in data set [3] is “substrate [+]”. Besides, in data set [2], the Km is 24.7 µM.

For orientation: Km means the concentration of substrate that gives half-maximal velocity.

The record behind these values is ChEMBL document CHEMBL2074457, “LST-2, a human liver-specific organic anion transporter, determines methotrexate sensitivity in gastrointestinal cancers” (Gastroenterology, 2001).
